# Assay results from PubChem BioAssay AID1963597 (National Center for Advancing Translational Sciences (NCATS), 2024).
# Tested on: human liver microsomes, metabolic stability half-life
# Test: NCATS Human Liver Microsomal (HLM) Stability Profiling
# Settings: higher = more stable; screened at 1 µM (by protocol)
# How it was run: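 Substrate depletion (in vitro t1/2): 1 µM compound with 0.5 mg/mL microsomes and NADPH regenerating system, phosphate buffer pH 7.4, 37 °C. Sampled at 0, 5, 10, 15, 30, 60 min into cold acetonitrile with albendazole internal standard for MS quantification.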
row,SMILES,half-life
1,COc1ccc(-n2nc(C3CCCN(CC4CCCCC4)C3)[nH]c2=O)cc1 (centres undefined),1.8 h
2,CCOc1cc(OCC)c(C(=O)CCC(=O)O)cc1OCC,> 2 h
3,Cn1nc(C(C)(C)C)cc1C(=O)NC(Cc1cccc(Cl)c1)C(=O)NCC#N (centres undefined),1.12 h
4,NC(=O)C1(N2CCCCC2)CCN(CCCC(=O)c2ccc(F)cc2)CC1,1.68 h

# Next, values leading:
row,half-life,SMILES
1,1.01 h,Cc1cc(=O)oc2cc(O)ccc12
2,0.379 h,Cc1ccccc1NC(=O)Nc1cccs1
3,0.639 h,COc1cc(C(=O)NCC2(N(C)C)CCCC2)cc(OC)c1OCc1ccccc1
4,0.21 h,CN(C)N(C)C(=O)[C@@]1(Cc2ccccc2)CCCN(C(=O)[C@@H](Cc2c[nH]c3ccccc23)NC(=O)C(C)(C)N)C1
5,0.309 h,CCOC(=O)[C@H](CCc1ccccc1)N[C@H]1CCc2ccccc2N(CC(=O)O)C1=O
